Patent publication US20260085053A1, “BENZOFURAN DERIVATIVES AS SIK INHIBITORS AND THE USE THEREOF” (BEONE MEDICINES I GMBH, priority 2023, published 2026)

Experiments:
[1] = molecular target: T1, SIK2 kinase (full length, Thermo Fisher) (Homo sapiens, UniProt Q9H0K1); experiment: Biochemical activities determination for SIK2 protein (TR-FRET); details: 80 uM ATP, 0.5 μM substrate
T1 construct: SIK2 kinase (full length, Thermo Fisher); purchased Thermo Fisher
Summary of the method: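 Full-length SIK2 preincubated 60 min with 0–10 μM compound, then reacted 180 min at room temperature with 80 uM ATP and 0.5 μM biotinylated substrate (pH 7.5 Tris/MgCl2 buffer). Phosphorylation detected by TR-FRET (665/620 nm ratio, cryptate antibody/streptavidin-XL665) after overnight incubation; IC50 from four-parameter logistic fit.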

[2] = molecular target: T2, SIK1 kinase (aa1-303, Thermo Fisher) (Homo sapiens, UniProt P57059); experiment: Biochemical activities determination for SIK1 protein (TR-FRET); details: 110 uM ATP, 0.5 μM STK1 substrate
T2 construct: SIK1 kinase (aa1-303, Thermo Fisher); purchased Thermo Fisher
T2 sequence (P57059 1-303): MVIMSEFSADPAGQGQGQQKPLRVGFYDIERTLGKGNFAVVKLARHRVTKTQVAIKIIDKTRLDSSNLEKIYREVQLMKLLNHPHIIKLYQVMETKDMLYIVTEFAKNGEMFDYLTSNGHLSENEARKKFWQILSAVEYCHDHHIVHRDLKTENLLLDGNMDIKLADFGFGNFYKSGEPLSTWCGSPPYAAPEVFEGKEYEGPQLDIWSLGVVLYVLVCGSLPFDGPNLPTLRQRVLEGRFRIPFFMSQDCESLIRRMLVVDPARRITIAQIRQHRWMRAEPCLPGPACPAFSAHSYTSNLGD
Summary of the method: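 TR-FRET kinase assay with SIK1 (aa1-303), 110 uM ATP, 0.5 μM STK1 substrate and 0-10 μM compound in Tris pH 7.5 with MgCl2, EGTA, DTT, Triton X-100. Enzyme preincubated with compound 60 min, reaction 180 min at room temperature; 665/620 nm ratio after overnight detection; IC50 from four-parameter logistic fit.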

[3] = molecular target: T3, SIK3 kinase (aa59-365, Thermo Fisher) (Homo sapiens, UniProt Q9Y2K2); experiment: Biochemical activities determination for SIK3 protein (TR-FRET); details: 125 uM ATP, 0.5 μM STK1 substrate
T3 construct: SIK3 kinase (aa59-365, Thermo Fisher); purchased Thermo Fisher
T3 sequence (Q9Y2K2 59-365): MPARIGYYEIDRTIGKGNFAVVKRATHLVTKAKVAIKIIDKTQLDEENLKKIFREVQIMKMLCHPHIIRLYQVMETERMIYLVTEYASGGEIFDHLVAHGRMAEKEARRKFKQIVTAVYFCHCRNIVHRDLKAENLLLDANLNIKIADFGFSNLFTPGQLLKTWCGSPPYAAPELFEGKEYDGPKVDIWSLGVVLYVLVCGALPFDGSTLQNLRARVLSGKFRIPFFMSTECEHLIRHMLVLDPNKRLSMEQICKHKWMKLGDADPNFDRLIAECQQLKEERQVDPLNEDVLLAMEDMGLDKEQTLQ
Summary of the method: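 SIK3 (aa59-365) was preincubated with compound (0-10 μM) for 60 min at room temperature in Tris buffer pH 7.5. The reaction was then started with 125 uM ATP and 0.5 μM STK1 substrate and run 180 min at room temperature. Phospho-substrate was detected by HTRF (665/620 nm ratio), and IC50 came from a four-parameter logistic fit.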

T1 sequence (Q9H0K1 whole entry): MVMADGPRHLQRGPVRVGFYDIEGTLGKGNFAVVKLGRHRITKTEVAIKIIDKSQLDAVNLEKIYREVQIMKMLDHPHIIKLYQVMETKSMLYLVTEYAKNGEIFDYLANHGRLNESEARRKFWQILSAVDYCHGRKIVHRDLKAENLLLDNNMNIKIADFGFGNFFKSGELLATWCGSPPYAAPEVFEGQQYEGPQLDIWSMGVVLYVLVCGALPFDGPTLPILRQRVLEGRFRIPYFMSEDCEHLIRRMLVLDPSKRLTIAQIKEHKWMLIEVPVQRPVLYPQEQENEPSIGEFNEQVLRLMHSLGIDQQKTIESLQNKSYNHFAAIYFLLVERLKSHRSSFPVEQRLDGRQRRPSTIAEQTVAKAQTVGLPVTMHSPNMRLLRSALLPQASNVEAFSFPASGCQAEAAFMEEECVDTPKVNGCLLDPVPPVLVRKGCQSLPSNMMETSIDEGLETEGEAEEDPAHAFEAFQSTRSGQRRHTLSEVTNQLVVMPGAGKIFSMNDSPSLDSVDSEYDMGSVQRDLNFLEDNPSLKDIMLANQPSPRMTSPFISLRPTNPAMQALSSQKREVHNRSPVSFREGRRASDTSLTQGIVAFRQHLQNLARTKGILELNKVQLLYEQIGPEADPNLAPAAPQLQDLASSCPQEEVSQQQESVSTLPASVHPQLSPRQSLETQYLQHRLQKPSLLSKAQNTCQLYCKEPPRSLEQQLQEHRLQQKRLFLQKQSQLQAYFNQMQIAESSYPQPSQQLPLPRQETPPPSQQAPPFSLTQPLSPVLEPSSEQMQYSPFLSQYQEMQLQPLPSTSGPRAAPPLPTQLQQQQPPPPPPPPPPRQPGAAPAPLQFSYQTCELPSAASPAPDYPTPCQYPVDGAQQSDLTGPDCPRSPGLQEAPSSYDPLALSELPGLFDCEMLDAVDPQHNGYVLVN

| Structure (SMILES) | IC50 [1] | IC50 [2] | IC50 [3] |
| --- | --- | --- | --- |
| COc1cc(-c2coc3cc(-c4ccc(C)nn4)ccc23)cc2c1C(=O)N(CC(F)(F)F)CC2 [Example 8, 8-methoxy-6-(6-(6-methylpyridazin-3-yl)benzofuran-3-yl)-2-(2,2,2-trifluoroethyl)-3,4-dihydroisoquinolin-1 (2H)-one] | 197 nM | > 10000 nM | 304 nM |
| CN1CC[C@H](Oc2cc(-c3coc4cc(OCCN5CCCC5)ccc34)cc(OC(F)F)c2C(=O)NC2CC2)C1 [Compound 111, (S)—N-cyclopropyl-2-(difluoromethoxy)-6-((1-methylpyrrolidin-3-yl)oxy)-4-(6-(2-(pyrrolidin-1-yl)ethoxy)benzofuran-3-yl)benzamide] | 1190 nM | > 10000 nM | 5700 nM |
| COc1cc(-c2coc3cc(OCCN4CCCC4)ccc23)cc(OC(F)F)c1C(=O)N[C@H]1C[C@@H]1F [Compound 99, 2-(difluoromethoxy)-N-((1S,2S)-2-fluorocyclopropyl)-6-methoxy-4-(6-(2-(pyrrolidin-1-yl)ethoxy)benzofuran-3-yl)benzamide] | 269 nM | > 10000 nM | 759 nM |
| CN1CC(COc2cc(-c3coc4cc(OCCN5CCCC5)ccc34)cc(OC(F)F)c2C(=O)NC2CC2)C1 [Compound 115, N-cyclopropyl-2-(difluoromethoxy)-6-((1-methylazetidin-3-yl)methoxy)-4-(6-(2-(pyrrolidin-1-yl)ethoxy)benzofuran-3-yl)benzamide] | 582 nM | > 10000 nM | 4240 nM |
| CC(C)Oc1cc(-c2coc3cc(OCCN4CCCC4)ccc23)cc(OC(F)F)c1C(=O)NC1CC1 [Compound 120, N-cyclopropyl-2-(difluoromethoxy)-6-isopropoxy-4-(6-(2-(pyrrolidin-1-yl)ethoxy)benzofuran-3-yl)benzamide] | 619 nM | > 10000 nM | 2540 nM |
| COc1cc(-c2coc3cc(OCC4CCCN4C)ccc23)cc2c1C(=O)N(CC(F)(F)F)CC2 (stereo not drawn) [Compound 61, 8-methoxy-6-(6-((1-methylpyrrolidin-2-yl)methoxy)benzofuran-3-yl)-2-(2,2,2-trifluoroethyl)-3,4-dihydroisoquinolin-1 (2H)-one] | 147 nM | > 10000 nM | 322 nM |
| COc1cc(-c2coc3cc(OCCN4CCCC4)ccc23)cc(OC(F)F)c1C(=O)N[C@H]1CCC[C@H]1O [Compound 126, 2-(difluoromethoxy)-N-((1S,2R)-2-hydroxycyclopentyl)-6-methoxy-4-(6-(2-(pyrrolidin-1-yl)ethoxy)benzofuran-3-yl)benzamide] | 224 nM | > 10000 nM | 878 nM |
| CCOc1cncc(-c2ccc3c(-c4cc5c(c(OC)c4)C(=O)N(CC(F)(F)F)CC5)coc3c2)c1 [Example 6, 6-(6-(5-ethoxypyridin-3-yl)benzofuran-3-yl)-8-methoxy-2-(2,2,2-trifluoroethyl)-3,4-dihydroisoquinolin-1 (2H)-one] | 7460 nM | > 10000 nM | 1430 nM |
| COc1cc(-c2coc3cc(OCCN4CCCC4)ccc23)cc(OC(F)F)c1C(=O)NC1CCCC1 [Compound 128, N-cyclopentyl-2-(difluoromethoxy)-6-methoxy-4-(6-(2-(pyrrolidin-1-yl)ethoxy)benzofuran-3-yl)benzamide] | 156 nM | > 10000 nM | 812 nM |

The next compounds have a lower IC50 [1] than those just listed; values first:

| IC50 [1] | IC50 [2] | IC50 [3] | Structure (SMILES) |
| --- | --- | --- | --- |
| 95 nM | 6040 nM | 174 nM | COc1cc(-c2coc3cc(-c4cn(C)nc4C)ccc23)cc2c1C(=O)N(CC(F)(F)F)CC2 [Compound 15, 6-(6-(1,3-dimethyl-1H-pyrazol-4-yl)benzofuran-3-yl)-8-methoxy-2-(2,2,2-trifluoroethyl)-3,4-dihydroisoquinolin-1 (2H)-one] |
| 90 nM | 8180 nM | 139 nM | COc1cc(-c2coc3cc(OC(C)CN4CCCC4)ccc23)cc(OC(F)F)c1C(=O)N[C@@H]1C[C@@H]1F (stereo partly drawn) [Compound 68, 2-(difluoromethoxy)-N-((1R,2S)-2-fluorocyclopropyl)-6-methoxy-4-(6-((1-(pyrrolidin-1-yl)propan-2-yl)oxy)benzofuran-3-yl)benzamide] |
| 28 nM | 476 nM | 42 nM | COc1cc(-c2coc3cc(-c4cnn(C(C)C)c4)ccc23)cc2c1C(=O)N(CC(F)(F)F)CC2 [Example 3, 6-(6-(1-isopropyl-1H-pyrazol-4-yl)benzofuran-3-yl)-8-methoxy-2-(2,2,2-trifluoroethyl)-3,4-dihydroisoquinolin-1 (2H)-one] |
| 20 nM | 2850 nM | 54 nM | COc1cc(-c2coc3cc(OCCN4CCC[C@@H]4C)ccc23)cc(OC(F)F)c1C(=O)N[C@@H]1C[C@@H]1F [Compound 80, 2-(difluoromethoxy)-N-((1R,2S)-2-fluorocyclopropyl)-6-methoxy-4-(6-(2-((S)-2-methylpyrrolidin-1-yl)ethoxy)benzofuran-3-yl)benzamide] |
| 18 nM | 562 nM | 43 nM | COc1cc(-c2coc3cc(OCCCN4CCOCC4)ccc23)cc(OC(F)F)c1C(=O)N[C@@H]1C[C@@H]1F [Compound 86, 2-(difluoromethoxy)-N-((1R,2S)-2-fluorocyclopropyl)-6-methoxy-4-(6-(3-morpholinopropoxy)benzofuran-3-yl)benzamide] |
| 15 nM | 1470 nM | 57 nM | COc1cc(-c2coc3cc(OCCN4CC[C@H](OC)C4)ccc23)cc(OC(F)F)c1C(=O)N[C@@H]1C[C@@H]1F [Compound 82, 2-(difluoromethoxy)-N-((1R,2S)-2-fluorocyclopropyl)-6-methoxy-4-(6-(2-((S)-3-methoxypyrrolidin-1-yl)ethoxy)benzofuran-3-yl)benzamide] |
| 13 nM | 737 nM | 75 nM | COc1cc(-c2coc3cc(OCCN4CCN(C)CC4)ccc23)cc(OC(F)F)c1C(=O)N[C@@H]1C[C@@H]1F [Compound 83, 2-(difluoromethoxy)-N-((1R,2S)-2-fluorocyclopropyl)-6-methoxy-4-(6-(2-(4-methylpiperazin-1-yl)ethoxy)benzofuran-3-yl)benzamide] |
| 5.2 nM | 538 nM | 45 nM | CN1CC(n2cc(-c3ccc4c(-c5cc6c(c(OC(F)F)c5)C(=O)N(CC(F)(F)F)CC6)coc4c3)cn2)C1 [Compound 44, 8-(difluoromethoxy)-6-(6-(1-(1-methylazetidin-3-yl)-1H-pyrazol-4-yl)benzofuran-3-yl)-2-(2,2,2-trifluoroethyl)-3,4-dihydroisoquinolin-1 (2H)-one] |
| 3.4 nM | 33 nM | 5 nM | COc1cc(-c2coc3cc(-c4cnn(C)c4)ccc23)cc(OC(F)F)c1C(=O)N[C@@H]1C[C@@H]1F [Compound 26, 2-(difluoromethoxy)-N-((1R,2S)-2-fluorocyclopropyl)-6-methoxy-4-(6-(1-methyl-1H-pyrazol-4-yl)benzofuran-3-yl)benzamide] |
| 2.8 nM | 294 nM | 19 nM | COc1cc(-c2coc3cc(-c4cnn(C5CN(C)C5)c4)ccc23)cc2c1C(=O)N(CC(F)(F)F)CC2 [Compound 53, 8-methoxy-6-(6-(1-(1-methylazetidin-3-yl)-1H-pyrazol-4-yl)benzofuran-3-yl)-2-(2,2,2-trifluoroethyl)-3,4-dihydroisoquinolin-1 (2H)-one] |
